Results as given in PMC7611415 (Chembiochem : a European journal of chemical biology, 2020).

Target: T1, acetylcholine-binding protein (AcAChBP) (Aplysia californica, UniProt Q8WSF8)
T1 sequence (Q8WSF8 20-236): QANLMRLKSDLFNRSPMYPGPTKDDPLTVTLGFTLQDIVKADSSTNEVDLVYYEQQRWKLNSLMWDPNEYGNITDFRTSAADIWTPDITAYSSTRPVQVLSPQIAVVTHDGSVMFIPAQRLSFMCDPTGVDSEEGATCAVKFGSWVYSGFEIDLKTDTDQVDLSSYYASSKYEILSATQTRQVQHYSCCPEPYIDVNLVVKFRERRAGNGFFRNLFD
Assay: tryptophan fluorescence quenching

Question: For `C[N+]1(C)CCc2cc3c(cc2[C@H]1[C@@H]1OC(=O)c2c1ccc1c2OCO1)OCO3` [N-methylbicuculline], which Kd is on record?
Answer: 1200 ± 100 nM
